In the supplement of paper PMC10307832:

Legend:
Assay in all cases: relative viability (nuclei count vs DMSO), 5 days (fraction); higher = more cells survive
NCI-H1623 = system: NCI-H1623
How it was run: (§1)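 Lung cancer cell lines were pin-tool dosed in 1536-well plates on the day after seeding, with either a lone drug or a fixed anchor-drug dose plus five library-drug doses (not always all listed) in √10 steps. Nuclei were counted on 4× images after 5 days. Relative viability is the ratio of treated-well to vehicle-well nuclei counts, with each value a median of duplicate plates.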

IA-LM = system: IA-LM
How it was run: as §1

NCI-H1703 = system: NCI-H1703
How it was run: as §1

NCI-H596 = system: NCI-H596
How it was run: as §1

A549 = system: A549
How it was run: as §1

EBC-1 = system: EBC-1
How it was run: as §1

NCI-H1299 = system: NCI-H1299
How it was run: as §1

Calu-6 = system: Calu-6
How it was run: as §1

NCI-H1648 = system: NCI-H1648
How it was run: as §1

For `COc1cc(N2CCC(C(N)=O)CC2)ccc1Nc1nc(N)c(Cl)c(Nc2ccccc2S(=O)(=O)C(C)C)n1` [HG-5-88-01] + COc1cc2c(Oc3ccc(NC(=O)C4(C(=O)Nc5ccc(F)cc5)CC4)cc3F)ccnc2cc1OCCCN1CCOCC1 [Foretinib] (partner 0.25 µM), the relative viability (NCI-H1623; first compound 0.04 µM) was 0.925, the relative viability (NCI-H1623; first compound 0.1265 µM) was 0.906 and the relative viability (NCI-H1623; first compound 0.4 µM) was 0.845. For the same compound, the relative viability (NCI-H1623; first compound 4 µM) was 0.773, the relative viability (IA-LM; first compound 0.04 µM) was 1.28 and the relative viability (IA-LM; first compound 0.1265 µM) was 1.22. For the same compound, the relative viability (IA-LM; first compound 0.4 µM) was 1.05, the relative viability (IA-LM; first compound 1.265 µM) was 0.885 and the relative viability (IA-LM; first compound 4 µM) was 1.18. The relative viability (NCI-H1703; first compound 0.04 µM) was 0.41, the relative viability (NCI-H1703; first compound 0.1265 µM) was 0.349 and the relative viability (NCI-H1703; first compound 1.265 µM) was 0.275. For the same compound, the relative viability (NCI-H1703; first compound 4 µM) was 0.331, the relative viability (NCI-H596; first compound 0.04 µM) was 0.956 and the relative viability (NCI-H596; first compound 0.1265 µM) was 0.871. The relative viability (NCI-H596; first compound 0.4 µM) was 0.801, the relative viability (NCI-H596; first compound 1.265 µM) was 0.895 and the relative viability (NCI-H596; first compound 4 µM) was 0.487. For the same compound, the relative viability (A549; first compound 0.04 µM) was 0.984, the relative viability (A549; first compound 0.1265 µM) was 0.861 and the relative viability (A549; first compound 0.4 µM) was 0.993. The relative viability (A549; first compound 1.265 µM) was 0.87, the relative viability (A549; first compound 4 µM) was 0.228 and the relative viability (EBC-1; first compound 0.04 µM) was 0.0975. For the same compound, the relative viability (EBC-1; first compound 0.4 µM) was 0.12, the relative viability (EBC-1; first compound 1.265 µM) was 0.11 and the relative viability (EBC-1; first compound 4 µM) was 0.105. It also gave a relative viability (NCI-H1299; first compound 0.04 µM) of 1.05, a relative viability (NCI-H1299; first compound 0.1265 µM) of 1.11 and a relative viability (NCI-H1299; first compound 0.4 µM) of 1.1. It also gave a relative viability (NCI-H1299; first compound 1.265 µM) of 1.07, a relative viability (NCI-H1299; first compound 4 µM) of 1.1 and a relative viability (Calu-6; first compound 0.04 µM) of 0.865. For the same compound, the relative viability (Calu-6; first compound 0.1265 µM) was 0.879, the relative viability (Calu-6; first compound 0.4 µM) was 0.866 and the relative viability (Calu-6; first compound 1.265 µM) was 0.793. It also gave a relative viability (Calu-6; first compound 4 µM) of 0.686.

For `C[C@@H]1CN(CC(=O)Nc2ccc3c(c2)Cc2cccc(-c4cc(=O)cc(N5CCOCC5)o4)c2S3)C[C@H](C)O1` + COc1cccc2cc(-c3nc([C@H]4CC[C@H](C(=O)O)CC4)n4ncnc(N)c34)[nH]c12 [OSI-027] (partner 0.5 µM), the relative viability (NCI-H1648; first compound 0.04 µM) was 0.247, the relative viability (NCI-H1648; first compound 0.1265 µM) was 0.258 and the relative viability (NCI-H1648; first compound 0.4 µM) was 0.242. For the same compound, the relative viability (NCI-H1648; first compound 4 µM) was 0.235, the relative viability (NCI-H1623; first compound 0.04 µM) was 0.411 and the relative viability (NCI-H1623; first compound 0.1265 µM) was 0.413. The relative viability (NCI-H1623; first compound 0.4 µM) was 0.412, the relative viability (NCI-H1623; first compound 4 µM) was 0.381 and the relative viability (NCI-H596; first compound 0.04 µM) was 0.899. For the same compound, the relative viability (NCI-H596; first compound 0.1265 µM) was 0.931, the relative viability (NCI-H596; first compound 0.4 µM) was 0.537 and the relative viability (NCI-H596; first compound 4 µM) was 0.549.

For `CC(C)Oc1cc(Nc2nc(N[C@@H](C)c3ccc(F)cn3)ncc2Cl)n[nH]1` [AZ23] + COc1cccc2cc(-c3nc([C@H]4CC[C@H](C(=O)O)CC4)n4ncnc(N)c34)[nH]c12 [OSI-027] (partner 0.5 µM), the relative viability (NCI-H1648; first compound 0.03162 µM) was 0.258, the relative viability (NCI-H1648; first compound 0.3162 µM) was 0.256 and the relative viability (NCI-H1623; first compound 0.01 µM) was 0.401. The relative viability (NCI-H1623; first compound 0.03162 µM) was 0.401, the relative viability (NCI-H1623; first compound 0.3162 µM) was 0.43 and the relative viability (NCI-H596; first compound 0.01 µM) was 0.711. For the same compound, the relative viability (NCI-H596; first compound 0.03162 µM) was 0.834 and the relative viability (NCI-H596; first compound 0.3162 µM) was 0.671.

`C[C@@H]1CN(CC(=O)Nc2ccc3c(c2)Cc2cccc(-c4cc(=O)cc(N5CCOCC5)o4)c2S3)C[C@H](C)O1` + Cc1nc(Nc2ncc(C(=O)Nc3c(C)cccc3Cl)s2)cc(N2CCN(CCO)CC2)n1 [Dasatinib] (partner 0.075 µM) showed a relative viability (NCI-H1623; first compound 0.04 µM) of 0.57, a relative viability (NCI-H1623; first compound 0.1265 µM) of 0.555 and a relative viability (NCI-H1623; first compound 0.4 µM) of 0.51. The relative viability (NCI-H1623; first compound 4 µM) was 0.588, the relative viability (NCI-H596; first compound 0.04 µM) was 0.568 and the relative viability (NCI-H596; first compound 0.1265 µM) was 0.512. It also gave a relative viability (NCI-H596; first compound 0.4 µM) of 0.572 and a relative viability (NCI-H596; first compound 4 µM) of 0.484.

With `COc1cc(N2CCC(C(N)=O)CC2)ccc1Nc1nc(N)c(Cl)c(Nc2ccccc2S(=O)(=O)C(C)C)n1` [HG-5-88-01] + N=C(N)NC(=N)NCCc1ccccc1 [Phenformin] (partner 250 µM) the relative viability (NCI-H1623; first compound 0.04 µM) was 0.651, the relative viability (NCI-H1623; first compound 0.1265 µM) was 0.618 and the relative viability (NCI-H1623; first compound 0.4 µM) was 0.561. The relative viability (NCI-H1623; first compound 4 µM) was 0.524, the relative viability (NCI-H596; first compound 0.04 µM) was 0.657 and the relative viability (NCI-H596; first compound 0.1265 µM) was 0.807. The relative viability (NCI-H596; first compound 0.4 µM) was 0.612, the relative viability (NCI-H596; first compound 1.265 µM) was 0.728 and the relative viability (NCI-H596; first compound 4 µM) was 0.379. For the same compound, the relative viability (A549; first compound 0.04 µM) was 0.246, the relative viability (A549; first compound 0.1265 µM) was 0.24 and the relative viability (A549; first compound 0.4 µM) was 0.327. The relative viability (A549; first compound 1.265 µM) was 0.347 and the relative viability (A549; first compound 4 µM) was 0.183.
